Several values for one entry are separate records, joined by “and”; a condition that tells them apart may be missing. Equal entries are not always repeated. Structures can show the parent of a compound that is named as a salt. Where two headings read alike, the source gives them in different places.
How the values were obtained:
[1] = system: H1650 (lung adenocarcinoma); conditions: 10 μM, 72 hours
Method: (§1) These cells were seeded at an amount of 2×10^6 cells, and then added with the culture medium for cultivating the cells to a volume of 10 mL, followed by cultivation for 2 to 3 days. After counting the cell number, these cells were respectively plated in a 96-well plate, in which each well has a fixed cell number of 3000 and a volume of 100 μL.
(§2) After removing the culture medium in the 96-well plate, each well was added with 100 μL of 10 μM commercial drug and then placed for 72 hours. Thereafter, each well was further added with 100 μL of a diluted WST-1 solution (the dilution ratio for the culture medium: WST-1 stock solution (wt/wt) is 9:1).

[2] = system: HeLa (cervix adenocarcinoma); conditions: 10 μM, 72 hours
Method: as §1, §2

[3] = system: C-33A (cervical carcinoma); conditions: 10 μM, 72 hours
Method: as §1, §2

LNCap = conditions: 10 μM, 72 hours, single experiments not given
[4] = system: Hep3B (hepatocellular carcinoma); conditions: 10 μM, 72 hours
Method: as §1, §2
(§3) Each cancer cell inhibitory experiment was repeated for 4 times, followed by calculation of the mean values thereof, which were shown in the following tables.

[5] = system: HCT116-wt (colorectal carcinoma); conditions: 10 μM, 72 hours
Method: as §1, §2, §3

[6] = system: LoVo (colorectal adenocarcinoma); conditions: 10 μM, 72 hours
Method: as §1, §2, §3

AsPC-1 = conditions: 10 μM, 72 hours
Method: as §1, §2, §3

[7] = system: SAS (tongue squamouscell carcinoma); conditions: 10 μM, 72 hours
Method: as §1, §2, §3

[8] = system: A375 (amelanotic melanoma); conditions: 10 μM, 72 hours
Method: as §1, §2

HEK 293 (kidney) = conditions: 10 μM, 72 hours
Method: as §1, §2
Each cell inhibitory experiment was repeated for 4 times, followed by calculation of the mean values thereof, which were shown in the following tables.

Bladder cancer = conditions: summary over cell lines, 10 μM, 72 hours
Method: as §1, §2

Cervical cancer = conditions: summary over cell lines, 10 μM, 72 hours
Method: as §1, §2

Prostate cancer = conditions: summary over cell lines, 10 μM, 72 hours
Method: as §1, §2

Breast cancer = conditions: summary over cell lines, 10 μM, 72 hours
Method: as §1, §2

Ovarian cancer = conditions: summary over cell lines, 10 μM, 72 hours
Method: as §1, §2

Liver cancer = conditions: summary over cell lines, 10 μM, 72 hours
Method: as §1, §2

Pancreatic cancer = conditions: summary over cell lines, 10 μM, 72 hours
Method: as §1, §2

Skin cancer = conditions: summary over cell lines, 10 μM, 72 hours
Method: as §1, §2

[9] = system: liver cancer cells (HepG2); conditions: for Increased tumor volume, Mean / Volume, Mean / Increased tumor volume / L (longest diameter of the tumor) / Volume / W (shortest diameter of the tumor) / Weight: intraperitoneal daily; for Increased tumor volume, Mean / Volume, Mean: mean of 3 mice; for Increased tumor volume / L (longest diameter of the tumor) / Volume / W (shortest diameter of the tumor) / Weight: mice A, B, C
Method: This experiment was performed with female BALB/cAnN.Cg-Foxn1nu/CrlNarl mice with a weight of around 21±1 gas samples. After subcutaneous injection of liver cancer cells (HepG2), the mice were randomly divided into three groups based on the test drug, i.e., normal control group, low dosage group (100 mg/kg/day) and high dosage group (200 mg/kg/day). After the tumor was grown to be over 100 mm^3, the mice were treated with the drug via intraperitoneal injection daily. The tumor size was measured two times per week. The formula for determining the tumor size was as follows: (L×W^2)/2, in which L represents the longest diameter of the tumor and W represents the shortest diameter of the tumor.

various cancer cells = conditions: Table 18, FIG. 1
Method: as §1, §2

[10] = High dosage (200 mg/kg/day), Fifth measurement
[11] = High dosage (200 mg/kg/day), First measurement
[12] = High dosage (200 mg/kg/day), First measurement, hydrochloride
[13] = High dosage (200 mg/kg/day), Fourth measurement
[14] = High dosage (200 mg/kg/day), Second measurement
[15] = High dosage (200 mg/kg/day), Second measurement, hydrochloride
[16] = High dosage (200 mg/kg/day), Third measurement
[17] = Low dosage (100 mg/kg/day), Fifth measurement
[18] = Low dosage (100 mg/kg/day), Fifth measurement, hydrochloride
[19] = Low dosage (100 mg/kg/day), First measurement
[20] = Low dosage (100 mg/kg/day), First measurement, hydrochloride
[21] = Low dosage (100 mg/kg/day), Fourth measurement
[22] = Low dosage (100 mg/kg/day), Fourth measurement, hydrochloride
[23] = Low dosage (100 mg/kg/day), Second measurement
[24] = Low dosage (100 mg/kg/day), Second measurement, hydrochloride
[25] = Low dosage (100 mg/kg/day), Third measurement
[26] = Low dosage (100 mg/kg/day), Third measurement, hydrochloride

`CNCC[C@H](Oc1cccc2ccccc12)c1cccs1` [duloxetine HCl, Duloxetine hydrochloride] was tested, and the “Mean (survival rate)” value ([1]; mean of 4 experiments) was 36.3%, the “survival rate 1-10 min” value ([1]; single experiment) was 35.2% and the “survival rate 2-20 min” value ([1]; single experiment) was 36.9%. The “survival rate 3-20 min” value ([1]; single experiment) was 33.6%, the “survival rate 4-20 min” value ([1]; single experiment) was 39.4% and the “Mean survival rate (%)” value ([2]; mean of 4 experiments) was 33.8%. For the same compound, the “survival rate 0524-10 min” value ([2]; single experiment) was 27.7%, the “survival rate 0526-10 min” value ([2]; single experiment) was 29.9% and the “survival rate 0529-10 min” value ([2]; single experiment) was 25.4%. The “survival rate 0531-10 min” value ([2]; single experiment) was 52.1%, the “Mean survival rate (%)” value ([3]; mean of 4 experiments) was 40.7% and the “survival rate 0524-10 min” value ([3]; single experiment) was 34.3%. The “survival rate 0526-10 min” value ([3]; single experiment) was 52.4%, the “survival rate 0529-10 min” value ([3]; single experiment) was 33.7% and the “survival rate 0531-10 min” value ([3]; single experiment) was 42.4%. The “Mean (survival rate)” value (LNCap) was 72.8%, the “Mean (survival rate)” value ([4]; mean of 4 experiments) was 47.9% and the “survival rate 0612-20 min” value ([4]; single experiment) was 41.4%. For the same compound, the “survival rate 0614-20 min” value ([4]; single experiment) was 53.3%, the “survival rate 0616-20 min” value ([4]; single experiment) was 36.2% and the “survival rate 0619-20 min” value ([4]; single experiment) was 60.6%. The “Mean survival rate (%)” value ([5]; mean of 4 experiments) was 77.1%, the “survival rate 0602-30 min” value ([5]; single experiment) was 52.1% and the “survival rate 0605-10 min” value ([5]; single experiment) was 108.8%. The “survival rate 0607-10 min” value ([5]; single experiment) was 127.4%, the “survival rate 0609-10 min” value ([5]; single experiment) was 20.3% and the “Mean survival rate (%)” value ([6]; mean of 4 experiments) was 47.3%. The “survival rate 0616-10 min” value ([6]; single experiment) was 44.8%, the “survival rate 0619-10 min” value ([6]; single experiment) was 63.4% and the “survival rate 0621-10 min” value ([6]; single experiment) was 49.9%. For the same compound, the “survival rate 0623-10 min” value ([6]; single experiment) was 31.0%, the “Mean survival rate (%)” value (AsPC-1; mean of 4 experiments) was 60.3% and the “survival rate 1-4-30 min” value (AsPC-1; single experiment) was 61.7%. For the same compound, the “survival rate 1-7-3-30 min” value (AsPC-1; single experiment) was 75.7%, the “survival rate 1-7-4-30 min” value (AsPC-1; single experiment) was 78.0% and the “survival rate 1-7-7-30 min” value (AsPC-1; single experiment) was 26.0%. The “Survival rate (%)” value ([7]; Lingual cancer (SAS), summary table) was 82.44%, the “Mean survival rate (%)” value ([7]; SAS, mean of 4 experiments) was 82.4% and the “survival rate 6-26-10 min” value ([7]; SAS, single experiment) was 45.7%. For the same compound, the “survival rate 6-28-10 min” value ([7]; SAS, single experiment) was 88.9%, the “survival rate 6-30-10 min” value ([7]; SAS, single experiment) was 96.2% and the “survival rate 7-3-10 min” value ([7]; SAS, single experiment) was 98.9%. For the same compound, the “Mean survival rate (%)” value ([8]; mean of 4 experiments) was 31.5%, the “survival rate 0602-30 min” value ([8]; single experiment) was 25.7% and the “survival rate 0605-10 min” value ([8]; single experiment) was 16.2%. For the same compound, the “survival rate 0607-10 min” value ([8]; single experiment) was 17.1%, the “survival rate 0609-10 min” value ([8]; single experiment) was 67.0% and the “Mean survival rate (%)” value (HEK 293 (kidney); HEK 293 normal kidney cells, mean, single experiments not given) was 62.4%. For the same compound, the “Survival rate (%)” value (HEK 293 (kidney); Kidney (HEK293 normal cells), summary table) was 62.44%, the “Survival rate (%)” value (Bladder cancer) was 67.2% and the “Survival rate (%)” value (Cervical cancer) was 36.76%. For the same compound, the “Survival rate (%)” value (Prostate cancer) was 59.23%, the “Survival rate (%)” value (Breast cancer) was 48.57% and the “Survival rate (%)” value (Ovarian cancer) was 51.5%. For the same compound, the “Survival rate (%)” value (Liver cancer) was 40.95%, the “Survival rate (%)” value (Pancreatic cancer) was 57.2% and the “Survival rate (%)” value (Skin cancer) was 39.79%. For the same compound, the “Increased tumor volume, Mean” value [9, 10] was 0 mm^3, the “Volume, Mean” value [9, 10] was 0 mm^3 and the Increased tumor volume [9, 10] was 0 mm^3. For the same compound, the “L (longest diameter of the tumor)” value [9, 10] was 0 mm, the Volume [9, 10] was 0 mm^3 and the “W (shortest diameter of the tumor)” value [9, 10] was 0 mm. For the same compound, the Weight [9, 10] was 20 g, the Weight ([9]; High dosage (200 mg/kg/day), Fifth measurement, hydrochloride) was 21 g and the “Increased tumor volume, Mean” value [9, 11] was 78.5 mm^3. For the same compound, the “Volume, Mean” value [9, 11] was 78.5 mm^3, the Weight [9, 11] was 20 g and the “L (longest diameter of the tumor)” value [9, 12] was 6 mm and 8 mm and 7 mm. The “W (shortest diameter of the tumor)” value [9, 12] was 4 mm and 5 mm, the Weight [9, 12] was 19 g and 18.5 g and the “Increased tumor volume, Mean” value [9, 13] was −13.3333 mm^3. For the same compound, the “Volume, Mean” value [9, 13] was 0 mm^3, the “L (longest diameter of the tumor)” value [9, 13] was 0 mm and the Volume [9, 13] was 0 mm^3. The “W (shortest diameter of the tumor)” value [9, 13] was 0 mm, the Weight [9, 13] was 20 g and the Weight ([9]; High dosage (200 mg/kg/day), Fourth measurement, hydrochloride) was 21 g. For the same compound, the “Increased tumor volume, Mean” value [9, 14] was −25.8333 mm^3, the “Volume, Mean” value [9, 14] was 52.67 mm^3 and the Weight [9, 14] was 20 g. For the same compound, the “L (longest diameter of the tumor)” value [9, 15] was 6 mm and 5 mm and 7 mm, the “W (shortest diameter of the tumor)” value [9, 15] was 4 mm and 3 mm and 5 mm and the Weight [9, 15] was 23 g. For the same compound, the “Increased tumor volume, Mean” value [9, 16] was −39.3333 mm^3, the “Volume, Mean” value [9, 16] was 13.33 mm^3 and the Weight ([9]; High dosage (200 mg/kg/day), Third measurement, hydrochloride) was 19 g and 18.5 g. For the same compound, the “Increased tumor volume, Mean” value [9, 17] was −8.333 mm^3, the “Volume, Mean” value [9, 17] was 63.33 mm^3 and the Weight [9, 17] was 20 g. The “L (longest diameter of the tumor)” value [9, 18] was 6 mm and 4 mm, the “W (shortest diameter of the tumor)” value [9, 18] was 6 mm and 5 mm and 4 mm and the Weight [9, 18] was 22 g. For the same compound, the “Increased tumor volume, Mean” value [9, 19] was 113.1667 mm^3, the “Volume, Mean” value [9, 19] was 113.1667 mm^3 and the Increased tumor volume [9, 20] was 87.5 mm^3 and 144 mm^3 and 108 mm^3. The “L (longest diameter of the tumor)” value [9, 20] was 7 mm and 8 mm and 6 mm, the Volume [9, 20] was 87.5 mm^3 and 144 mm^3 and 108 mm^3 and the “W (shortest diameter of the tumor)” value [9, 20] was 5 mm and 6 mm. The Weight [9, 20] was 19 g and 18 g, the “Increased tumor volume, Mean” value [9, 21] was −18.1667 mm^3 and the “Volume, Mean” value [9, 21] was 71.67 mm^3. The Weight [9, 21] was 20 g, the “L (longest diameter of the tumor)” value [9, 22] was 6 mm and 4 mm and the “W (shortest diameter of the tumor)” value [9, 22] was 6 mm and 4 mm and 5 mm. For the same compound, the Weight [9, 22] was 22 g, the “Increased tumor volume, Mean” value [9, 23] was −4.167 mm^3 and the “Volume, Mean” value [9, 23] was 109 mm^3. The Weight [9, 23] was 20 g, the “L (longest diameter of the tumor)” value [9, 24] was 6 mm and 7 mm and the Volume [9, 24] was 75 mm^3 and 126 mm^3. The “W (shortest diameter of the tumor)” value [9, 24] was 5 mm and 6 mm, the Weight [9, 24] was 19 g and 21 g and the “Increased tumor volume, Mean” value [9, 25] was −19.1667 mm^3. For the same compound, the “Volume, Mean” value [9, 25] was 89.83 mm^3, the “L (longest diameter of the tumor)” value [9, 25] was 7 mm and the “W (shortest diameter of the tumor)” value [9, 26] was 6 mm and 4 mm and 5 mm. For the same compound, the Weight [9, 26] was 20.5 g and 23.5 g and 19 g, the “inhibitory effect against the tumors” value ([9]; both low dosage and high dosage, FIG. 2) was “great inhibitory effect” and the “weight loss during the experiments” value ([9]; each group of mice, high or low dosage) was “no obvious weight loss”. The “health condition / death during the treatment” value ([9]; either high or low dosage) was “not die during the treatment”, the “effect on tumor volume, high versus low dosage” value ([9]; high dosage, FIG. 3) was “better effect” and the “increase of tumor volume” value ([9]; low dosage and high dosage, FIG. 3) was “effectively inhibit the increase of tumor volume”. For the same compound, the “inhibitory effect against various cancers” value (various cancer cells) was “significant inhibitory effect”.

Source: patent US10045962B2 (priority 2014, dated 2018)
